Results on 9 compounds are retold here after patent publication US4493839A, “1-Carbapenem-3-carboxylic esters as anti-inflammatory agents” (Merck & Co., Inc., priority 1982, dated 1985).

In this test the target is T1, Human Polymorphonuclear Leukocyte Elastase (Homo sapiens, UniProt P08246).
T1 construct: Crude extract of human polymorphonuclear leukocytes (PMN) containing elastase activity; endogenous in cells; host or cells: human polymorphonuclear leukocytes (crude extract)
T1 sequence (P08246 30-247 limits assumed): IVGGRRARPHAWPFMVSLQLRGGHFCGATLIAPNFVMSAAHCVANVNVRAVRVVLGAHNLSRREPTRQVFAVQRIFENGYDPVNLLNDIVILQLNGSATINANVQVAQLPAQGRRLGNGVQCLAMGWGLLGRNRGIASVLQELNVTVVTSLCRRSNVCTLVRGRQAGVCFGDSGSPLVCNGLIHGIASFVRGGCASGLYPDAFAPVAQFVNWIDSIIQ
Briefly: Enzyme assay for the inhibition of human polymorphonuclear leukocyte elastase via hydrolysis of N-t-Boc-alanyl-alanyl-prolylalanine-p-nitroanilide. Type of test: biochemical. The note with it: measured within 2 minutes, crude PMN extract, 0.2 mM Boc-AAPAN, pH 7.5; for inhibition at 5 µg/mL: Conc. 5 μg/ml; for inhibition at 10 µg/mL: Conc. 10 μg/ml; for inhibition at 20 µg/mL: Conc. 20 μg/ml; for inhibition at 50 µg/mL: Conc. 50 μg/ml; for inhibition at 0.5 µg/mL: Conc. 0.5 μg/ml; for inhibition at 1 µg/mL: Conc. 1 μg/ml; for inhibition at 2 µg/mL: Conc. 2 μg/ml. As for the experimental part: Protocol--Enzyme Assays for the Inhibition of Human Polymorphonuclear Leukocyte Elastase Via Hydrolysis of N-t-Boc-alanyl-alanyl-prolylalanine-p-nitroanilide
0.05M TES (N-tris[hydroxymethyl]methyl-2-amino-ethanesulfonic acid) Buffer, pH 7.5.
0.2 mM N-to-Boc-alanyl-alanyl-Prolyl-Alanine-p-nitroanilide (Boc-AAPAN).
To prepare substrate, the solid (m.w. 550) was first dissolved in 10.0 ml DMSO. Buffer at pH 7.5 was then added to a final volume of 100 ml.
Crude extract of human polymorphonuclear leukocytes (PMN) containing elastase activity.
Inhibitors (carbapenem esters) to be tested dissolved in DMSO just before use.
To 1.0 ml of 0.2 mM Boc-AAPAN in a cuvette, 0.01-0.1 ml of DMSO with or without inhibitor was added. After mixing, a measurement was taken at 410 mμ to detect any spontaneous hydrolysis due to presence of test compound. 0.05 Milliliters of PMN extract was then added and the ΔOD/min at 410 mμ was measured and recorded. Beckman model 35 spectrophotometer was used.
The elastase activity in the crude PMN extract may vary from one preparation to another. A control of each new batch is run, and the volume added in the assay procedure is adjusted according to activity.

As for `CC(NC(=O)OCc1ccccc1[N+](=O)[O-])C1C(=O)N2C(C(=O)OCc3ccccc3[N+](=O)[O-])=CCC12` (stereo not shown), the inhibition at 5 µg/mL was found to be 23%, the inhibition at 10 µg/mL worked out at 57%, the inhibition at 20 µg/mL turned out to be 72% and the inhibition at 50 µg/mL came out at 82%.

For `CC(O)C1C(=O)N2C(C(=O)OCc3ccc([N+](=O)[O-])cc3)=C(SCCO)CC12` (stereo not shown), 20 µg/mL produced 84% inhibition and the inhibition at 50 µg/mL amounted to 95%.

Compound `CC(OC(=O)OCc1ccccc1[N+](=O)[O-])C1C(=O)N2C(C(=O)OCc3ccccc3[N+](=O)[O-])=CCC12` (stereo not shown) displayed an inhibition at 0.5 µg/mL of 27%, an inhibition at 1 µg/mL of 46%, an inhibition at 2 µg/mL of 78% and an inhibition at 5 µg/mL of 85%. Testing at 10 µg/mL gave an inhibition of 88% and the inhibition at 20 µg/mL was found to be 88%.

The compound `CC(O)C1C(=O)N2C(C(=O)OCc3ccc([N+](=O)[O-])cc3)=C(Sc3ccncc3)CC12` (stereo not shown) registered an inhibition at 0.5 µg/mL of 21%, an inhibition at 1 µg/mL of 72%, an inhibition at 5 µg/mL of 93% and an inhibition at 20 µg/mL of 100%.

For the compound `CC(O)C1C(=O)N2C(C(=O)OCc3ccc([N+](=O)[O-])cc3)=C(SCc3ccccn3)CC12` (stereo not shown), the inhibition at 5 µg/mL came out at 63% and testing at 20 µg/mL gave an inhibition of 100%.

With `CC=C1C(=O)N2C(C(=O)OCc3ccc([N+](=O)[O-])cc3)=C(SCCN3C(=O)c4ccccc4C3=O)CC12` (stereo not shown), the inhibition at 20 µg/mL worked out at 47% and the inhibition at 50 µg/mL was determined as 73%.

For `O=C(OCc1ccccc1)C1=C(SCc2ccccc2)CC2C(CO)C(=O)N12` (stereo not shown) [Benzyl], the inhibition at 1 µg/mL is 77%, the inhibition at 5 µg/mL stood at 90%, the inhibition at 10 µg/mL worked out at 93% and the inhibition at 50 µg/mL worked out at 97%.

In turn, `CC(O)C1C(=O)N2C(C(=O)OCc3ccc([N+](=O)[O-])cc3)=C(SCc3ccccc3)CC12` (stereo not shown) showed an inhibition at 20 µg/mL of 50% and an inhibition at 50 µg/mL of 75%.

`CC(OC(=O)OCc1ccccc1[N+](=O)[O-])C1C(=O)N2C(C(=O)OCc3ccccc3[N+](=O)[O-])=C(c3ccc(CN=[N+]=[N-])cc3)CC12` (stereo not shown) returned an inhibition at 1 µg/mL of 59%, an inhibition at 2 µg/mL of 66%, an inhibition at 5 µg/mL of 74% and an inhibition at 10 µg/mL of 76%. 50 µg/mL produced 79% inhibition.

As a reminder, the inhibition is the relative decrease from the control value, in per cent.
